The source made the active and inactive calls. How the calls were made is not given here.
Test system: CCRIS mutagenicity, Ames/micronucleus/aberration tests
Test: CCRIS mutagenicity studies
Source text: The CCRIS database contains chemical records with carcinogenicity, mutagenicity, tumor promotion, and tumor inhibition test results. It was developed by the National Cancer Institute (NCI). Data are derived from studies cited in primary journals, current awareness tools, NCI reports, and other sources. Test results have been reviewed by experts in carcinogenesis and mutagenesis.
CCRIS provides historical information from the years 1985 - 2011. It is no longer updated.
This is an archive assay for CCRIS mutagenicity studies.

[1] = Test System: AMES SALMONELLA TYPHIMURIUM, Strain/Indicator: TA98, Metabolic Activation: NONE, Method: PREINCUBATION
[2] = Test System: AMES SALMONELLA TYPHIMURIUM, Strain/Indicator: TA100, Metabolic Activation: NONE, Method: PREINCUBATION

With O=C(O)c1ccccc1O the mutagenic call (Test System: AMES SALMONELLA TYPHIMURIUM, Strain/Indicator: TA98, Metabolic Activation: GUINEA PIG, LIVER, S-9, PCB, Method: PREINCUBATION) was “inactive; negative”, the mutagenic call (Test System: AMES SALMONELLA TYPHIMURIUM, Strain/Indicator: TA98, Metabolic Activation: HAMSTER, LIVER, S-9, PCB, Method: PREINCUBATION) was “inactive; negative” and the mutagenic call (Test System: AMES SALMONELLA TYPHIMURIUM, Strain/Indicator: TA98, Metabolic Activation: MOUSE, LIVER, S-9, PCB, Method: PREINCUBATION) was “inactive; negative”. For the same compound, the mutagenic call [1] was “inactive; negative”, the mutagenic call (Test System: AMES SALMONELLA TYPHIMURIUM, Strain/Indicator: TA98, Metabolic Activation: RAT LIVER S-9, PHENOBARBITAL AND BETA-NAPHTHOFLAVONE, Method: PREINCUBATION) was “inactive; negative” and the mutagenic call (Test System: AMES SALMONELLA TYPHIMURIUM, Strain/Indicator: TA98, Metabolic Activation: RAT, LIVER, S-9, PCB, Method: PREINCUBATION) was “inactive; negative”. For the same compound, the mutagenic call (Test System: AMES SALMONELLA TYPHIMURIUM, Strain/Indicator: TA100, Metabolic Activation: GUINEA PIG, LIVER, S-9, PCB, Method: PREINCUBATION) was “inactive; negative”, the mutagenic call (Test System: AMES SALMONELLA TYPHIMURIUM, Strain/Indicator: TA100, Metabolic Activation: HAMSTER, LIVER, S-9, PCB, Method: PREINCUBATION) was “inactive; negative” and the mutagenic call (Test System: AMES SALMONELLA TYPHIMURIUM, Strain/Indicator: TA100, Metabolic Activation: MOUSE, LIVER, S-9, PCB, Method: PREINCUBATION) was “inactive; negative”. The mutagenic call [2] was “inactive; negative”, the mutagenic call (Test System: AMES SALMONELLA TYPHIMURIUM, Strain/Indicator: TA100, Metabolic Activation: RAT LIVER S-9, PHENOBARBITAL AND BETA-NAPHTHOFLAVONE, Method: PREINCUBATION) was “inactive; negative” and the mutagenic call (Test System: AMES SALMONELLA TYPHIMURIUM, Strain/Indicator: TA1535, Metabolic Activation: NONE, Method: PREINCUBATION) was “inactive; negative”. The mutagenic call (Test System: AMES SALMONELLA TYPHIMURIUM, Strain/Indicator: TA1535, Metabolic Activation: RAT LIVER S-9, PHENOBARBITAL AND BETA-NAPHTHOFLAVONE, Method: PREINCUBATION) was “inactive; negative”, the mutagenic call (Test System: AMES SALMONELLA TYPHIMURIUM, Strain/Indicator: TA1537, Metabolic Activation: NONE, Method: PREINCUBATION) was “inactive; negative” and the mutagenic call (Test System: AMES SALMONELLA TYPHIMURIUM, Strain/Indicator: TA1537, Metabolic Activation: RAT LIVER S-9, PHENOBARBITAL AND BETA-NAPHTHOFLAVONE, Method: PREINCUBATION) was “inactive; negative”. The mutagenic call (Test System: E.COLI, Strain/Indicator: WP2UVRA/PKM101, Metabolic Activation: NONE, Method: PREINCUBATION) was “inactive; negative” and the mutagenic call (Test System: E.COLI, Strain/Indicator: WP2UVRA/PKM101, Metabolic Activation: RAT LIVER S-9, PHENOBARBITAL AND BETA-NAPHTHOFLAVONE, Method: PREINCUBATION) was “inactive; negative”.
For CC(C)(C)c1ccc(C(=O)O)cc1, the mutagenic call (Test System: Ames Salmonella typhimurium, Strain/Indicator: TA98, Metabolic Activation: None, Method: Preincubation) was “inactive; negative”, the mutagenic call (Test System: Ames Salmonella typhimurium, Strain/Indicator: TA98, Metabolic Activation: Rat, Liver, S9, Sodium phenobarbital and 5,6-benzoflavone (10%), Method: Preincubation) was “inactive; negative” and the mutagenic call (Test System: Ames Salmonella typhimurium, Strain/Indicator: TA100, Metabolic Activation: None, Method: Preincubation) was “inactive; negative”. For the same compound, the mutagenic call (Test System: Ames Salmonella typhimurium, Strain/Indicator: TA100, Metabolic Activation: Rat, Liver, S9, Sodium phenobarbital and 5,6-benzoflavone (10%), Method: Preincubation) was “inactive; negative”, the mutagenic call (Test System: Ames Salmonella typhimurium, Strain/Indicator: TA1535, Metabolic Activation: None, Method: Preincubation) was “inactive; negative” and the mutagenic call (Test System: Ames Salmonella typhimurium, Strain/Indicator: TA1535, Metabolic Activation: Rat, Liver, S9, Sodium phenobarbital and 5,6-benzoflavone (10%), Method: Preincubation) was “inactive; negative”. For the same compound, the mutagenic call (Test System: Ames Salmonella typhimurium, Strain/Indicator: TA1537, Metabolic Activation: None, Method: Preincubation) was “inactive; negative”, the mutagenic call (Test System: Ames Salmonella typhimurium, Strain/Indicator: TA1537, Metabolic Activation: Rat, Liver, S9, Sodium phenobarbital and 5,6-benzoflavone (10%), Method: Preincubation) was “inactive; negative” and the mutagenic call (Test System: E. coli, Strain/Indicator: WP2uvrA/pKM101, Metabolic Activation: None, Method: Preincubation) was “inactive; negative”. The mutagenic call (Test System: E. coli, Strain/Indicator: WP2uvrA/pKM101, Metabolic Activation: Rat, Liver, S9, Sodium phenobarbital and 5,6-benzoflavone (10%), Method: Preincubation) was “inactive; negative”.
With O=[N+]([O-])c1cnc2c(c1)nc1ccccn12 the mutagenic call (Test System: AMES SALMONELLA TYPHIMURIUM, Strain/Indicator: TA98, Metabolic Activation: NONE, Method: STANDARD PLATE) was “active; positive”, the mutagenic call (Test System: AMES SALMONELLA TYPHIMURIUM, Strain/Indicator: TA98, Metabolic Activation: RAT, LIVER, CYTOSOL, AROCLOR 1254, Method: STANDARD PLATE) was “active; positive” and the mutagenic call (Test System: AMES SALMONELLA TYPHIMURIUM, Strain/Indicator: TA98, Metabolic Activation: RAT, LIVER, MICROSOMES, AROCLOR 1254, Method: STANDARD PLATE) was “active; positive”. The mutagenic call (Test System: AMES SALMONELLA TYPHIMURIUM, Strain/Indicator: TA98, Metabolic Activation: RAT, LIVER, S-9, AROCLOR 1254, Method: STANDARD PLATE) was “active; positive”.
O=[N+]([O-])c1ccc2oc3ccc([N+](=O)[O-])cc3c2c1 was tested, and the mutagenic call (Test System: AMES SALMONELLA TYPHIMURIUM, Strain/Indicator: TA98(1,8-DNP6), Metabolic Activation: NONE, Method: PREINCUBATION) was “active; positive”, the mutagenic call (Test System: AMES SALMONELLA TYPHIMURIUM, Strain/Indicator: TA98(1,8-DNP6), Metabolic Activation: NONE, Method: SUSPENSION) was “active; positive” and the mutagenic call (Test System: AMES SALMONELLA TYPHIMURIUM, Strain/Indicator: TA98(1,8-DNP6), Metabolic Activation: RAT, LIVER, S-9, PCB (5%), Method: PREINCUBATION) was “active; positive”. The mutagenic call (Test System: AMES SALMONELLA TYPHIMURIUM, Strain/Indicator: TA98(NR), Metabolic Activation: NONE, Method: PREINCUBATION) was “inactive; negative”, the mutagenic call (Test System: AMES SALMONELLA TYPHIMURIUM, Strain/Indicator: TA98(NR), Metabolic Activation: NONE, Method: SUSPENSION) was “inactive; negative” and the mutagenic call (Test System: AMES SALMONELLA TYPHIMURIUM, Strain/Indicator: TA98(NR), Metabolic Activation: RAT, LIVER, S-9 (10%), Method: PREINCUBATION) was “active; positive”. For the same compound, the mutagenic call (Test System: AMES SALMONELLA TYPHIMURIUM, Strain/Indicator: TA98(NR), Metabolic Activation: RAT, LIVER, S-9, 3-METHYLCHOLANTHRENE (10%), Method: PREINCUBATION) was “active; positive”, the mutagenic call (Test System: AMES SALMONELLA TYPHIMURIUM, Strain/Indicator: TA98(NR), Metabolic Activation: RAT, LIVER, S-9, BETA-NAPHTHOFLAVONE (10%), Method: PREINCUBATION) was “active; positive” and the mutagenic call (Test System: AMES SALMONELLA TYPHIMURIUM, Strain/Indicator: TA98(NR), Metabolic Activation: RAT, LIVER, S-9, PCB (5 OR 10%), Method: PREINCUBATION) was “active; positive”. For the same compound, the mutagenic call (Test System: AMES SALMONELLA TYPHIMURIUM, Strain/Indicator: TA98(NR), Metabolic Activation: RAT, LIVER, S-9, PHENOBARBITAL (10%), Method: PREINCUBATION) was “active; positive”, the mutagenic call [1] was “active; positive” and the mutagenic call (Test System: AMES SALMONELLA TYPHIMURIUM, Strain/Indicator: TA98, Metabolic Activation: NONE, Method: SUSPENSION) was “active; positive”. The mutagenic call (Test System: AMES SALMONELLA TYPHIMURIUM, Strain/Indicator: TA98, Metabolic Activation: RAT, LIVER, S-9, PCB (5%), Method: PREINCUBATION) was “active; positive”, the mutagenic call (Test System: AMES SALMONELLA TYPHIMURIUM, Strain/Indicator: TA98, Metabolic Activation: RAT, LIVER, S-9, PCB, Method: SUSPENSION) was “active; positive” and the mutagenic call [2] was “inactive; negative”. The mutagenic call (Test System: AMES SALMONELLA TYPHIMURIUM, Strain/Indicator: TA100, Metabolic Activation: NONE, Method: SUSPENSION) was “inactive; negative”, the mutagenic call (Test System: AMES SALMONELLA TYPHIMURIUM, Strain/Indicator: TA100, Metabolic Activation: RAT, LIVER, S-9, PCB (5%), Method: PREINCUBATION) was “inactive; negative” and the mutagenic call (Test System: AMES SALMONELLA TYPHIMURIUM, Strain/Indicator: TA100, Metabolic Activation: RAT, LIVER, S-9, PCB, Method: SUSPENSION) was “inactive; negative”.
In the case of Cn1sc(Cl)cc1=O (tested in a mixture with another compound), the mutagenic call (Test System: AMES SALMONELLA TYPHIMURIUM, Strain/Indicator: TA100, Metabolic Activation: NONE, Method: STANDARD PLATE) is reported as “active; positive” and the mutagenic call (Test System: AMES SALMONELLA TYPHIMURIUM, Strain/Indicator: TA100, Metabolic Activation: RAT, LIVER, S-9, AROCLOR 1254, Method: STANDARD PLATE) is reported as “active; positive”.
With CN(Cc1cccc(Br)c1)N=O the mutagenic call (Test System: AMES SALMONELLA TYPHIMURIUM, Strain/Indicator: TA1535, Metabolic Activation: HAMSTER, LIVER, S-9, AROCLOR 1254, Method: STANDARD PLATE) was “active; positive” and the mutagenic call (Test System: AMES SALMONELLA TYPHIMURIUM, Strain/Indicator: TA1535, Metabolic Activation: NONE, Method: STANDARD PLATE) was “inactive; negative”.

Source: PubChem BioAssay AID1259407 (Chemical Carcinogenesis Research Information System (CCRIS), 2018)
